# pIC50, pKd: −log10 of the molar value. The source made the active and inactive calls. The calls are words filed in the database; no cut-off is given here.
# Legend:
# [1] = Toxicity in BALB/c mouse infected with Influenza A virus (A/Puerto Rico/8/34) assessed as death at 10 mg/kg, po after 11 days; assay type: organism-based; conditions: in vivo, 264 h, time 11 day
# [2] = Toxicity in BALB/c mouse infected with Influenza A virus (A/Puerto Rico/8/34) assessed as decrease in body weight at 10 mg/kg, po upto 8 days; assay type: organism-based; conditions: in vivo, 192 h, time < 8 day
# Influenza A virus [3] = assay: (§1) In vivo antiviral activity against Influenza A virus (A/Puerto Rico/8/34) infected in BALB/c mouse assessed as intact columnar epithelia in bronchiole without inflammatory cell infiltration at 10 mg/kg, po once daily treated after 4 hrs of inoculation for 4 days relative to control by HE staining based histopathological analysis; assay type: functional, organism-based
# Influenza A virus [4] = assay: In vivo antiviral activity against Influenza A virus (A/Puerto Rico/8/34) infected in BALB/c mouse assessed as increase in mouse survival at 10 mg/kg, po once daily treated after 4 hrs of inoculation for 14 days relative to control; assay type: functional; conditions: A/Puerto Rico/8/34, 336 h, time 14 day
# [5] = Selectivity index, ratio of CC50 for cytotoxicity against dog MDCK cells to IC50 for anti-viral activity against Influenza A virus (A/Puerto Rico/8/34 infected in MDCK cells; assay type: toxicity, cell-based; conditions: read-out: Selectivity Index
# [6] = Cytotoxicity against dog MDCK cells assessed as cell viability measured after 48 hrs by MTT assay; assay type: toxicity, cell-based, Canis lupus familiaris
# [7] = molecular target: Hemagglutinin (Influenza A virus (A/Puerto Rico/8/1934(H1N1))) (UniProt P03452); assay: Blockade of Influenza A virus (A/Puerto Rico/8/34) Hemagglutinin-mediated membrane fusion in Vero cells expressing PR8 HA assessed as syncytium formation at pH 5 and measured at 20 uM measured after 2 hrs by polykaryon assay; assay type: cell-based
# Chain of Hemagglutinin (Influenza A virus (A/Puerto Rico/8/1934(H1N1))) (P03452 whole entry, the tested form may be a part): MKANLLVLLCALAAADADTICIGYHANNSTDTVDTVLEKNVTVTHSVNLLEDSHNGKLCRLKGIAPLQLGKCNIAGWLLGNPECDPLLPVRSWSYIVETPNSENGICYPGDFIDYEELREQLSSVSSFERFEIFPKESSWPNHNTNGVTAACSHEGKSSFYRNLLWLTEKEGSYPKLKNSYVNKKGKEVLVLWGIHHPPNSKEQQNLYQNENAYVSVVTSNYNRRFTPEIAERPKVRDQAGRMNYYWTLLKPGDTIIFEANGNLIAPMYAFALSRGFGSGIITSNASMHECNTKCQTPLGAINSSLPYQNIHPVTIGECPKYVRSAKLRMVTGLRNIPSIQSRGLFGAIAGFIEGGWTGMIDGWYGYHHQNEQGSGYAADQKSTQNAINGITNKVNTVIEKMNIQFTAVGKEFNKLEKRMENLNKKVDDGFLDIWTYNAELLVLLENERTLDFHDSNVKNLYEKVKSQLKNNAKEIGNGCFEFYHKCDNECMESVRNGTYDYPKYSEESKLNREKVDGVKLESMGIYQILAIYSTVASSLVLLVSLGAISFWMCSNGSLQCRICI
# [8] = molecular target: Hemagglutinin (Influenza A virus (A/Puerto Rico/8/1934(H1N1)), UniProt P03452); assay: Binding affinity to Influenza A virus (A/Puerto Rico/8/34) Hemagglutinin by surface plasmon resonance (SPR) assay
# Chain of Hemagglutinin (Influenza A virus (A/Puerto Rico/8/1934(H1N1)), UniProt P03452) (P03452 whole entry, the tested form may be a part): as above
# [9] = molecular target: Hemagglutinin (Influenza A virus (A/Puerto Rico/8/1934(H1N1))) (UniProt P03452); assay: Blockade of Influenza A virus (A/Puerto Rico/8/34) Hemagglutinin-mediated membrane fusion in Vero cells expressing PR8 HA assessed as syncytium formation at pH 5 at 5 to 20 uM by quantitative membrane fusion assay; assay type: cell-based; conditions: dose 5-20 µM
# [10] = Cytotoxicity against african green monkey Vero cells assessed as cell viability measured after 48 hrs by MTT assay; assay type: toxicity, cell-based; conditions: chlorocebus sabaeus
# Influenza A virus [11] = assay: Anti-viral activity against Influenza A virus H1N1 (A/WSN/33; WSN) infected in MDCK cells assessed as inhibition of virus cytopathic effect measured after 48 hrs by crystal violet staining based assay; assay type: functional
# MDCK [12] = assay: Reduction in NS1 protein expression in Influenza A virus (A/Puerto Rico/8/34) infected in MDCK cell after 60 mins by Western blot analysis; assay type: functional, cell-based
# Influenza A virus [13] = assay: Anti-viral activity against Influenza H1N1 virus (A/Virginia09/ATCC1/2009; Vir09) infected (at MOI = 3) in MDCK cell assessed as reduction in hemagglutinin titer using chicken RBC measured after 60 mins by hemagglutinin assay; assay type: functional, organism-based; conditions: H1N1 A/Virginia09/ATCC1/2009, dose 5-20 µM
# Influenza A virus [14] = assay: In vivo antiviral activity against Influenza A virus (A/Puerto Rico/8/34) infected in BALB/c mouse assessed as increase in mouse survival at 2.5 mg/kg, po once daily treated after 4 hrs of inoculation for 5 days; assay type: functional, organism-based; conditions: time 5.0 day
# Influenza A virus [15] = assay: Anti-viral activity against Influenza A virus H1N1 (A/Puerto Rico/8/34) infected (at MOI = 3) in MDCK cell assessed as reduction in hemagglutinin titer using chicken RBC measured after 60 mins by hemagglutinin assay; assay type: functional, organism-based; conditions: H1N1 A/Puerto Rico/8/34, MDCK, 1 h
# Influenza A virus [16] = assay: Anti-viral activity against Influenza virus H3N2 (A/Aichi/2/68; Aichi) infected (at MOI = 3) in MDCK cell assessed as reduction in hemagglutinin titer using chicken RBC measured after 60 mins by hemagglutinin assay; assay type: functional, organism-based; conditions: 1 h
# [17] = molecular target: Hemagglutinin (Influenza A virus (A/Puerto Rico/8/1934(H1N1))) (UniProt P03452); assay: Blockade of Influenza A virus (A/Puerto Rico/8/34) Hemagglutinin-mediated membrane fusion in Vero cells expressing PR8 HA assessed as syncytium formation at pH 5 and measured at 15 uM measured after 2 hrs by polykaryon assay; assay type: cell-based
# MDCK [18] = assay: Reduction in NP protein expression in Influenza A virus (A/Puerto Rico/8/34) infected in MDCK cell at 40 uM after 60 mins by Western blot analysis; assay type: functional, cell-based
# [19] = Toxicity in BALB/c mouse infected with Influenza A virus (A/Puerto Rico/8/34) assessed as decrease in body weight at 2.5 mg/kg, po upto 8 days; assay type: organism-based; conditions: in vivo, 192 h, time < 8 day
# Influenza A virus [20] = assay: as §1, with “5” for “10”; assay type: functional, organism-based
# [21] = molecular target: Hemagglutinin (Influenza A virus (A/Puerto Rico/8/1934(H1N1))) (UniProt P03452); assay: Blockade of Influenza A virus (A/Puerto Rico/8/34) Hemagglutinin-mediated membrane fusion in Vero cells expressing PR8 HA assessed as syncytium formation at pH 5 by quantitative membrane fusion assay; assay type: cell-based; conditions: dose 5-40 µM
# Influenza A virus [22] = assay: Potency index, ratio of penindolone-IC50 to test compound IC50 for anti-viral activity against Influenza A virus (A/Puerto Rico/8/34) infected in MDCK cells; assay type: functional
# Influenza A virus [23] = assay: Anti-viral activity against Influenza A virus H1N1 (A/Virginia09/ATCC1/2009; Vir09) infected in MDCK cells assessed as inhibition of virus cytopathic effect measured after 48 hrs by crystal violet staining based assay; assay type: functional
# Influenza B virus = assay: Anti-viral activity against Influenza B virus strain (B/Hong Kong/5/72) infected in MDCK cells assessed as inhibition of virus cytopathic effect measured after 48 hrs by crystal violet staining based assay; assay type: functional
# [24] = Cytotoxicity against human A549 cells assessed as cell viability measured after 48 hrs by MTT assay; assay type: toxicity, cell-based
# Influenza A virus [25] = assay: In vivo antiviral activity against Influenza A virus (A/Puerto Rico/8/34) infected in BALB/c mouse assessed as decrease in pulmonary viral titers at 2.5 to 5 mg/kg, po once daily treated after 4 hrs of inoculation for 4 days relative to control; assay type: functional, organism-based; conditions: dose 2.5-5 mg/kg, time 4.0 day
# Influenza A virus [26] = assay: Anti-viral activity against Influenza virus H3N2 (A/Aichi/2/68; Aichi) infected in MDCK cells assessed as inhibition of virus cytopathic effect measured after 48 hrs by crystal violet staining based assay; assay type: functional
# [27] = molecular target: Hemagglutinin (Influenza A virus (A/Puerto Rico/8/1934(H1N1))) (UniProt P03452); assay: Inhibition of trypsin-mediated Influenza A virus (A/Puerto Rico/8/34) hemagglutinin protein digestion pretreated at 50 uM for 20 mins at pH 5 followed by treated with trypsin for 30 mins at pH 8.5 by SDS-PAGE/trypsin susceptibility (TS) assay
# MDCK [28] = assay: Reduction in HA2 protein expression in Influenza A virus (A/Puerto Rico/8/34) infected in MDCK cell after 60 mins by Western blot analysis; assay type: functional, cell-based; conditions: dose 2.5-20 µM
# Influenza A virus [29] = assay: In vivo antiviral activity against Influenza A virus (A/Puerto Rico/8/34) infected in BALB/c mouse assessed as increase in mouse survival at 2.5 mg/kg, po once daily treated after 4 hrs of inoculation for 14 days relative to control; assay type: functional; conditions: A/Puerto Rico/8/34, 336 h, time 14 day
# [30] = Toxicity in BALB/c mouse infected with Influenza A virus (A/Puerto Rico/8/34) assessed as death at 2.5 mg/kg, po after 8 days; assay type: organism-based; conditions: in vivo, 192 h, time 8 day
smiles,measurement,setting,value
CCOC(=O)C1=C[C@@H](OC(CC)CC)[C@H](NC(C)=O)[C@@H](N)C1 [OSELTAMIVIR],Activity,[1],Non-Toxic
same,Activity,[2],Toxic
same,Activity,Influenza A virus [3],Active
same,survival at 10 mg/kg,Influenza A virus [4],80%
same,selectivity ratio,[5],> 26.3
same,CC50 at 48 h,[6],> 300 µM
CC(=O)c1cc(C)c(O)c(Cc2[nH]c3ccccc3c2Cc2c(O)c(C)cc(C(C)=O)c2O)c1O,selectivity ratio,[5],> 11.8
same,CC50 at 48 h,[6],> 300 µM
same,inhibition,[7],Active
same,pKd,[8],5.08
same,inhibition,[9],Active
CCOC(=O)c1c(CSc2ccccc2)n(C)c2cc(Br)c(O)c(CN(C)C)c12 [UMIFENOVIR],pKd,[8],4.29
CC(=O)c1cc(C)c(O)c(Cc2[nH]c3ccc(-c4c5ccccc5cc5ccccc45)cc3c2Cc2c(O)c(C)cc(C(C)=O)c2O)c1O,CC50 at 48 h,[10],1350 µM
same,inhibition (INH),Influenza A virus [11],5.6%
same,inhibition,MDCK [12],Dose-Dependent Effect
same,inhibition,Influenza A virus [13],Dose-Dependent Effect
same,Activity,Influenza A virus [14],Active
same,pIC50,Influenza A virus [15],> 5.30
same,pIC50,Influenza A virus [16],> 5.00
same,inhibition,[17],Active
same,inhibition,MDCK [18],Active
same,Activity,[19],Non-Toxic
same,Activity,Influenza A virus [20],Active
same,inhibition,[21],Dose-Dependent Effect
same,Ratio IC50,Influenza A virus [22],3.8
same,selectivity ratio,[5],> 44.8
same,inhibition (INH),Influenza A virus [23],13.5%
same,CC50 at 48 h,[6],> 300 µM
same,inhibition (INH),Influenza B virus,3.4%
same,pKd,[8],5.19
same,CC50 at 48 h,[24],180 µM
same,Activity,Influenza A virus [25],Active
same,inhibition (INH),Influenza A virus [26],8.7%
same,inhibition,[27],Active
same,inhibition,MDCK [28],Dose-Dependent Effect
same,survival at 2.5 mg/kg,Influenza A virus [29],70%
same,Activity,[30],Toxic
CC(=O)c1cc(C)c(O)c(Cc2[nH]c3ccc(-c4ccc(C(F)(F)F)cc4)cc3c2Cc2c(O)c(C)cc(C(C)=O)c2O)c1O,selectivity ratio,[5],> 13.7
same,CC50 at 48 h,[6],> 300 µM
CC(=O)c1cc(C)c(O)c(Cc2[nH]c3cc(-c4ccc5c(c4)OCCO5)ccc3c2Cc2c(O)c(C)cc(C(C)=O)c2O)c1O,selectivity ratio,[5],> 15.5
same,CC50 at 48 h,[6],> 300 µM

# — ChEMBL document CHEMBL5625170, “Design, synthesis, and biological evaluation of novel penindolone derivatives as potential inhibitors of hemagglutinin-mediated membrane fusion” (Eur J Med Chem, 2023)
